In assay [1] the test system is Staphylococcus aureus S13E. The format is cell-based. The method, then: (§1) The MIC's were determined using a standard broth micro-dilution assay.
Assay [2] relates to Entercoccus faecium 180-1. The assay is described as follows: broth micro-dilution MIC. The format is cell-based. The protocol: as §1
On the technique in general: Dilution methods test growth across graded concentrations, often in twofold steps.

The next assay concerns Entercoccus faecium 276. The assay is described as follows: broth micro-dilution MIC. The format is cell-based. The method, then: as §1
Assay [3] relates to Staphylococcus aureus 446. Description: broth micro-dilution MIC. The format is cell-based. The method, then:
as §1

In assay [4] the test system is Staphylococcus aureus 447. The assay is described as follows: broth micro-dilution MIC. The format is cell-based. The method, then: as §1
In assay [5] the test system is Staphylococcus aureus 489. The assay is described as follows: broth micro-dilution MIC. The format is cell-based. The method, then: as §1
For assay [6], the system named is Staphylococcus aureus 491. The assay is described as follows: broth micro-dilution MIC. The format is cell-based. The protocol:
as §1

In assay [7] the test system is Staphylococcus aureus SA1199A. The assay is described as follows: broth micro-dilution MIC. The format is cell-based. The method, then: as §1
Assay [8] has as its system Staphylococcus aureus X400. Description: broth micro-dilution MIC. The format is cell-based. The method, then:
as §1

Assay [9] relates to Staphylococcus aureus X778. The assay is described as follows: broth micro-dilution MIC. The format is cell-based. The method, then:
as §1

A further assay has as its system Entercoccus faecium 180. The assay is described as follows: broth micro-dilution MIC. The format is cell-based. Conditions: Entercoccus faecium 180. The protocol:
(§2) The formula I compounds have in vitro and in vivo activity against Gram-positive pathogenic bacteria. The MIC's were determined using a standard broth micro-dilution assay.

The test system of a further assay is Entercoccus faecium 2041. Description: broth micro-dilution MIC. The format is cell-based. Conditions: Entercoccus faecium 2041. The protocol:
as §2

In assay [10] the test system is Enterococcus gallinarum 245. Description: broth micro-dilution MIC. The format is cell-based. Conditions: Enterococcus gallinarum 245. The method, then: as §2
Assay [11] deals with Staphylococcus epidermidis 270. Description: broth micro-dilution MIC. The format is cell-based. The protocol: as §2
Assay [12] deals with Staphylococcus haemolyticus 105. Description: broth micro-dilution MIC. The format is cell-based. The protocol: as §2
The test system of assay [13] is Staphylococcus haemolyticus 415. The assay is described as follows: broth micro-dilution MIC. The format is cell-based. The method, then:
as §2

The subject of assay [14] is vancomycin-resistant enterococci. The assay is described as follows: broth micro-dilution, mean geometric MIC. The format is cell-based, Enterococcus faecium and Enterococcus faecalis. The note with it: enterococci, 24-hour incubation.
The test system of assay [15] is vancomycin-susceptible enterococci. Description: broth micro-dilution, mean geometric MIC. The format is cell-based, Enterococcus faecium and Enterococcus faecalis. Conditions: enterococci, 24-hour incubation.
For assay [16], the system named is Staphylococcus aureus SA1199B. The format is cell-based. The method, then:
as §1

Assay [17] concerns Streptococcus pyogenes C203. Description: broth micro-dilution MIC. The format is cell-based. The method, then:
as §1

Assay [18] deals with Streptococcus pneumoniae P1. Description: broth micro-dilution MIC. The format is cell-based. The method, then: as §2

Each structure is given as a SMILES string. In brackets after ≈: the same amount, converted by molar mass.

What is called MIC is the lowest concentration found to suppress growth. Regarding `CNC(CC(C)C)C(=O)NC1C(=O)NC(CC(N)=O)C(=O)NC2C(=O)NC3C(=O)NC(C(=O)NC(C(=O)O)c4cc(O)cc(O)c4-c4cc3ccc4O)C(OC3CC(C)(N)C(O)C(C)O3)c3ccc(c(Cl)c3)Oc3cc2cc(c3OC2OC(CO)C(O)C(O)C2OC2CC(C)(NCc3cnc4ccccc4c3)C(O)C(C)O2)Oc2ccc(cc2Cl)C1O` (stereo not drawn) [Compound 28], the MIC in assay [1] was no more than 0.06 µg/mL; in [2], no more than 0.06 µg/mL; against Entercoccus faecium 276, no more than 0.06 µg/mL; in [3] it was 0.25 µg/mL (≈ 0.144 µM); in assay [4], 1 µg/mL (≈ 0.577 µM); in assay [5] it was no more than 0.06 µg/mL. For the same molecule, the MIC was 0.25 µg/mL (≈ 0.144 µM) in assay [6]; no more than 0.06 µg/mL in assay [7]; no more than 0.06 µg/mL in assay [8]; no more than 0.06 µg/mL in assay [9]; 1 µg/mL (≈ 0.577 µM) in the assay on Entercoccus faecium 180; 0.25 µg/mL (≈ 0.144 µM) against Entercoccus faecium 2041. For the same molecule, the MIC came to 0.25 µg/mL (≈ 0.144 µM) in [10], 1 µg/mL (≈ 0.577 µM) in assay [11], 4 µg/mL (≈ 2.31 µM) in assay [12] and 8 µg/mL (≈ 4.61 µM) in assay [13]. For the same molecule, the “mean geometric MIC, Vancomycin Resistant Strains” value in [14] stood at 4.7 µg/mL. The “mean geometric MIC, Vancomycin Sensitive Strains” value in [15] was 0.71 µg/mL.

As for `CNC(CC(C)C)C(=O)NC1C(=O)NC(CC(N)=O)C(=O)NC2C(=O)NC3C(=O)NC(C(=O)NC(C(=O)O)c4cc(O)cc(O)c4-c4cc3ccc4O)C(OC3CC(C)(N)C(O)C(C)O3)c3ccc(c(Cl)c3)Oc3cc2cc(c3OC2OC(CO)C(O)C(O)C2OC2CC(C)(NCc3cncc(-c4ccccc4)c3)C(O)C(C)O2)Oc2ccc(cc2Cl)C1O` (stereo not drawn) [Compound 101], the MIC in [16] is 1 µg/mL (≈ 0.568 µM); in assay [2] it was no more than 0.06 µg/mL; against Entercoccus faecium 276, 0.125 µg/mL (≈ 0.071 µM); in assay [3], 0.5 µg/mL (≈ 0.284 µM); in assay [4], 1 µg/mL (≈ 0.568 µM); in assay [5], no more than 0.06 µg/mL. For the same molecule, the MIC is 0.5 µg/mL (≈ 0.284 µM) in [6]; 0.5 µg/mL (≈ 0.284 µM) in assay [7]; no more than 0.06 µg/mL in assay [8]; no more than 0.06 µg/mL in [17]; no more than 0.06 µg/mL against Entercoccus faecium 2041; 8 µg/mL (≈ 4.55 µM) in assay [10]. In addition, the MIC in [11] was 0.5 µg/mL (≈ 0.284 µM); in assay [12], 1 µg/mL (≈ 0.568 µM); in [13], 8 µg/mL (≈ 4.55 µM); in assay [18] it was no more than 0.06 µg/mL. Moreover, the “mean geometric MIC, Vancomycin Resistant Strains” value in [14] worked out at 4.0 µg/mL.

As for `CNC(CC(C)C)C(=O)NC1C(=O)NC(CC(N)=O)C(=O)NC2C(=O)NC3C(=O)NC(C(=O)NC(C(=O)O)c4cc(O)cc(O)c4-c4cc3ccc4O)C(OC3CC(C)(N)C(O)C(C)O3)c3ccc(c(Cl)c3)Oc3cc2cc(c3OC2OC(CO)C(O)C(O)C2OC2CC(C)(NCc3cccc(OC(=O)C4CCCCC4)c3)C(O)C(C)O2)Oc2ccc(cc2Cl)C1O` (stereo not drawn) [Compound 165], the minimum inhibitory concentration (MIC) in assay [1] is no more than 0.06 µg/mL; in [16] it was 1 µg/mL (≈ 0.553 µM); in assay [2] it was no more than 0.06 µg/mL; in the assay on Entercoccus faecium 276, 0.5 µg/mL (≈ 0.276 µM); in assay [3], 1 µg/mL (≈ 0.553 µM); in assay [4], 0.5 µg/mL (≈ 0.276 µM). Also, the MIC in [5] was 2 µg/mL (≈ 1.11 µM); in assay [6], 0.5 µg/mL (≈ 0.276 µM); in assay [7], no more than 0.06 µg/mL; in assay [8], 0.5 µg/mL (≈ 0.276 µM); in [17], no more than 0.06 µg/mL; in the assay with Entercoccus faecium 180, 0.5 µg/mL (≈ 0.276 µM). Also, the MIC in the assay on Entercoccus faecium 2041 was no more than 0.06 µg/mL; in assay [10], 4 µg/mL (≈ 2.21 µM); in [11] it was 1 µg/mL (≈ 0.553 µM); in assay [12], 4 µg/mL (≈ 2.21 µM); in [13], 4 µg/mL (≈ 2.21 µM); in assay [18] it was no more than 0.06 µg/mL. For the same molecule, in assay [14], the “mean geometric MIC, Vancomycin Resistant Strains” value worked out at 4.0 µg/mL. Also, the “mean geometric MIC, Vancomycin Sensitive Strains” value in assay [15] came to 0.062 µg/mL.

As to `CNC(CC(C)C)C(=O)NC1C(=O)NC(CC(N)=O)C(=O)NC2C(=O)NC3C(=O)NC(C(=O)NC(C(=O)O)c4cc(O)cc(O)c4-c4cc3ccc4O)C(OC3CC(C)(N)C(O)C(C)O3)c3ccc(c(Cl)c3)Oc3cc2cc(c3OC2OC(CO)C(O)C(O)C2OC2CC(C)(NCc3ccc(OCC(O)CO)cc3)C(O)C(C)O2)Oc2ccc(cc2Cl)C1O` (stereo not drawn) [Compound 177], the MIC in assay [2] was no more than 0.06 µg/mL; in assay [3] it was 0.5 µg/mL (≈ 0.282 µM); in assay [4] it was 4 µg/mL (≈ 2.26 µM); in [5], no more than 0.06 µg/mL; in assay [6], 0.5 µg/mL (≈ 0.282 µM); in assay [7] it was 0.5 µg/mL (≈ 0.282 µM). For the same molecule, the MIC was no more than 0.06 µg/mL in assay [8]; 2 µg/mL (≈ 1.13 µM) in assay [9]; 16 µg/mL (≈ 9.03 µM) in assay [17]; 4 µg/mL (≈ 2.26 µM) against Entercoccus faecium 180; 16 µg/mL (≈ 9.03 µM) in assay [10]; 1 µg/mL (≈ 0.564 µM) in [11]. Also, the MIC came out at 4 µg/mL (≈ 2.26 µM) in [12], 16 µg/mL (≈ 9.03 µM) in assay [13] and 8 µg/mL (≈ 4.51 µM) in assay [18].

With `CCCCCCCC#Cc1ccc(CN[C@@]2(C)C[C@H](O[C@H]3[C@H](Oc4c5cc6cc4Oc4ccc(cc4Cl)[C@@H](O[C@H]4C[C@](C)(N)[C@@H](O)[C@H](C)O4)[C@@H]4NC(=O)[C@H](NC(=O)[C@@H]6NC(=O)[C@H](CC(N)=O)NC(=O)[C@H](NC(=O)[C@@H](CC(C)C)NC)[C@H](O)c6ccc(c(Cl)c6)O5)c5ccc(O)c(c5)-c5c(O)cc(O)cc5[C@@H](C(=O)O)NC4=O)O[C@H](CO)[C@@H](O)[C@@H]3O)O[C@@H](C)[C@@H]2O)cc1` [Compound 232], the MIC in assay [1] amounted to 8 µg/mL (≈ 4.43 µM); in assay [16], 32 µg/mL (≈ 17.7 µM); in assay [2] it was 1 µg/mL (≈ 0.554 µM); in the assay with Entercoccus faecium 276, 8 µg/mL (≈ 4.43 µM); in assay [3], 4 µg/mL (≈ 2.22 µM); in assay [5] it was 8 µg/mL (≈ 4.43 µM). In addition, the minimal inhibitory concentration (MIC) was 4 µg/mL (≈ 2.22 µM) in assay [6]; 2 µg/mL (≈ 1.11 µM) in assay [7]; 8 µg/mL (≈ 4.43 µM) in assay [8]; 8 µg/mL (≈ 4.43 µM) in [9]; no more than 0.06 µg/mL in assay [17]; 0.5 µg/mL (≈ 0.277 µM) against Entercoccus faecium 180. Also, the minimal inhibitory concentration (MIC) in the assay on Entercoccus faecium 2041 was 2 µg/mL (≈ 1.11 µM); in assay [10] it was 32 µg/mL (≈ 17.7 µM); in [11], 8 µg/mL (≈ 4.43 µM); in assay [12] it was 2 µg/mL (≈ 1.11 µM); in assay [13] it was 32 µg/mL (≈ 17.7 µM); in assay [18] it was no more than 0.06 µg/mL. Moreover, the “mean geometric MIC, Vancomycin Resistant Strains” value in [14] worked out at 0.71 µg/mL. In addition, the “mean geometric MIC, Vancomycin Sensitive Strains” value in [15] came out at 0.29 µg/mL.

For `CC#CCCCCCCCCCCOc1ccc(CNC2(C)CC(OC3C(Oc4c5cc6cc4Oc4ccc(cc4Cl)C(OC4CC(C)(N)C(O)C(C)O4)C4NC(=O)C(NC(=O)C6NC(=O)C(CC(N)=O)NC(=O)C(NC(=O)C(CC(C)C)NC)C(O)c6ccc(c(Cl)c6)O5)c5ccc(O)c(c5)-c5c(O)cc(O)cc5C(C(=O)O)NC4=O)OC(CO)C(O)C3O)OC(C)C2O)cc1` (stereo not drawn) [Compound 233], the MIC is 8 µg/mL (≈ 4.26 µM) in assay [1]; 2 µg/mL (≈ 1.07 µM) in assay [2]; 8 µg/mL (≈ 4.26 µM) in the assay with Entercoccus faecium 276; 4 µg/mL (≈ 2.13 µM) in [3]; 4 µg/mL (≈ 2.13 µM) in assay [5]; 8 µg/mL (≈ 4.26 µM) in assay [6]. Also, the MIC was 4 µg/mL (≈ 2.13 µM) in assay [7]; 8 µg/mL (≈ 4.26 µM) in assay [8]; 8 µg/mL (≈ 4.26 µM) in assay [9]; 2 µg/mL (≈ 1.07 µM) against Entercoccus faecium 180; 2 µg/mL (≈ 1.07 µM) against Entercoccus faecium 2041; 8 µg/mL (≈ 4.26 µM) in assay [11]. The same molecule showed an MIC in [18] of 0.5 µg/mL (≈ 0.266 µM). Moreover, the “mean geometric MIC, Vancomycin Resistant Strains” value in assay [14] was 1.7 µg/mL. For the same molecule, the “mean geometric MIC, Vancomycin Sensitive Strains” value in [15] was 1.7 µg/mL.

The values are drawn from patent US5840684A, “Glycopeptide antibiotic derivatives” (Eli Lilly and Company, priority 1995, dated 1998).
